{"source": "patent US11674123B2", "about": "“Generating arterial endothelial cell populations” (Wisconsin Alumni Research Foundation, priority 2015, dated 2023)", "molecules": {"B1": {"name": "WNT3A: recombinant protein, Wnt signaling factor added to medium (protein, UniProt P56704 19-352, looked up)", "Protein Wnt-3a": "SYPIWWSLAVGPQYSSLGSQPILCASIPGLVPKQLRFCRNYVEIMPSVAEGIKIGIQECQHQFRGRRWNCTTVHDSLAIFGPVLDKATRESAFVHAIASAGVAFAVTRSCAEGTAAICGCSSRHQGSPGKGWKWGGCSEDIEFGGMVSREFADARENRPDARSAMNRHNNEAGRQAIASHMHLKCKCHGLSGSCEVKTCWWSQPDFRAIGDFLKDKYDSASEMVVEKHRESRGWVETLRPRYTYFKVPTERDLVYYEASPNFCEPNPETGSFGTRDRTCNVSSHGIDGCDLLCCGRGHNARAERRREKCRCVFHWCCYVSCQECTRVYDVHTCK"}, "B2": {"name": "PDGF-BB: platelet derived growth factor BB (protein, UniProt P01127 82-190, looked up)", "Platelet-derived growth …": "SLGSLTIAEPAMIAECKTRTEVFEISRRLIDRTNANFLVWPPCVEVQRCSGCCNNRNVQCRPTQVQLRPVQVRKIEIVRKKPIFKKATVTLEDHLACKCETVAAARPVT", "modifications": "homodimer"}}, "format_in_all_cases": "cell-based, human", "key": {"[1]": {"test_system": "EFNB2-tdTomato/EPHB4-EGFP dual reporter cells (H1 ES cells)", "assay": "Arterial endothelial differentiation of EFNB2-tdTomato/EPHB4-EGFP dual reporter cells, flow cytometry", "details": "for arterial endothelial differentiation of human pluripotent stem cells (conclusion after FACS sorting and RT-qPCR): summary statement; for arterial endothelial cell differentiation (EFNB2-tdTomato high/EPHB4-EGFP low cells), factor added: added day 2 to day 6 to E5 + 50 ng/ml VEGFA + 10 μM SB431542, 5 μM L690, 5 μg/ml LDL, 100 ng/ml PDGF-BB, FIGS. 3E-3F; for EFNB2-tdTomato high/EPHB4-EGFP low cells, factor removed from five factors medium: individual removal, FIGS. 4A-4B; for arterial differentiation (EFNB2-tdTomato high/EPHB4-EGFP low cells), factor removed: factor removed from the medium after mesoderm formation, day 2 to day 6, FIGS. 3A-3F; for arterial specification (EFNB2-tdTomato and EPHB4-EGFP expression), factor added singly: added to Control medium (E5+100 ng/ml FGF2+10 μM SB431542): 50 ng/ml VEGF, 5 μM RESV or 50 ng/ml WNT3A, FIG. 11; for EFNB2-tdTomato high/EPHB4-EGFP low cells / arterial differentiation, factor added to five factors medium: 100 ng/ml PDGF-BB or exogenous WNT3A, FIGS. 4A-4F, FIG. 9", "experimental": "(A) Flow cytometric analysis of EFNB2-tdTomato and EPHB4-EGFP expression on CD31 and CD144 gated endothelial cells. EFNB2-tdTomato/EPHB4-EGFP dual reporter cells (hetero knock-in in H1 cells for each gene) were first differentiated into mesoderm cells by E8BAC medium (E8 medium supplemented with BMP4, Activin-A, and CHIR99021). E5 (E8 medium minus FGF2, TGFβ1, and insulin) medium supplemented with 100 ng/ml FGF2, 50 ng/ml VEGFA, and 50 ng/ml BMP4 was used to induce mesoderm cells to differentiate into endothelial cells from day 2 to day 6. Either Insulin (20 μg/ml) or Ly294002 (16 μM, a PI3K inhibitor) was added to the medium as indicated from day 2 to day 6. (B) Statistics of EFNB2-tdTommato^high/EPHB4-EGFP^low cells. […] (C) Western blots showing AKT activity. Protein was harvested at day 3. (D) Flow cytometric analysis of EFNB2-tdTomato and EPHB4-EGFP expression on CD31 and CD144 gated endothelial cells. E5 medium supplemented with 50 ng/ml VEGFA, 50 ng/ml BMP4 or 10 μM SB431542 was used to induce mesoderm cells to differentiate into endothelial cells from day 2 to day 6. (E) Flow cytometric analysis of EFNB2-tdTomato and EPHB4-EGFP expression on CD31 and CD144 gated endothelial cells. ES cells were first differentiated into mesoderm cells as mentioned above. E5 medium supplemented with 50 ng/ml VEGFA and 10 μM SB431542 was used as the base medium induce mesoderm cells to differentiate into endothelial cells from day 2 to day 6. Other factors were added to the base medium as indicated. (F) Statistics of EFNB2-tdTomato^high/EPHB4-EGFP^low cells. […] FIGS. 4A-4H present flow cytometric analysis of expression of EphrinB2 and Ephrin Type B Receptor 4 reporter constructs (EFNB2-tdTomato and EPHB4-EGFP) on CD31- and CD144-gated endothelial cells obtained after differentiation in various medium, as described. FIG. 4B illustrates the percentage of arterial endothelial cells (AEC) (EFNB2-tdTomato^high/EPHB4-EGFP^low) obtained after differentiation in the various medium conditions of FIG. 4A. Data are represented as mean±SD. […] FIG. 4D illustrates the percentage of CXCR4^+CD144^+ arterial endothelial cells obtained after differentiation in the various medium conditions of FIG. 4C. […] FIG. 4F illustrates the percentage of DLL4^+CD144^+ arterial endothelial cells obtained after differentiation in the various medium conditions of FIG. 4E. 5 μM L-690,330 (a bisphosphonate inhibitor of inositol monophosphatase), and 100 ng/ml PDGF-BB (platelet derived growth factor BB) were used. […] FIGS. 11A-11C present arterial endothelial cell differentiation data. (A) Schematic of arterial endothelial cell differentiation protocol. ES cells were first differentiated into mesoderm cells by E8BAC medium (E8 medium supplemented with 5 ng/ml BMP4, 25 ng/ml Activin A, and 1 μM CHIR99021). E5 (E8 medium minus FGF2, TGFβ1, and insulin) medium supplemented with 100 ng/ml FGF2 and 10 μM SB431542 was then used to induce mesoderm cells to differentiate into endothelial cells. (B) Flow cytometric analysis of CD31 and CD34 expression. E5+100 ng/ml FGF2+10 μM SB431542 medium (“Control”) supplemented with 50 ng/ml VEGF, 5 μM RESV (resveratrol, a Notch activator), or 50 ng/ml WNT3A was used to induce mesoderm cells to differentiate into arterial endothelial cells. (C) Flow cytometric analysis of EFNB2-tdTomato and EPHB4-EGFP expression."}, "[2]": {"test_system": "CXCR4+CD144+ and DLL4+CD144+ arterial endothelial cells", "assay": "Flow cytometry of CXCR4/CD144 and DLL4/CD144 on differentiated endothelial cells", "details": "FIGS. 4C-4F; for CXCR4 and DLL4 (CD144+CXCR4+ and CD144+DLL4+ cells), factor removed from five factors medium: individual removal", "excerpt": "FIGS. 4A-4H present flow cytometric analysis of expression of EphrinB2 and Ephrin Type B Receptor 4 reporter constructs (EFNB2-tdTomato and EPHB4-EGFP) on CD31- and CD144-gated endothelial cells obtained after differentiation in various medium, as described. FIG. 4B illustrates the percentage of arterial endothelial cells (AEC) (EFNB2-tdTomato^high/EPHB4-EGFP^low) obtained after differentiation in the various medium conditions of FIG. 4A. Data are represented as mean±SD. […] FIG. 4D illustrates the percentage of CXCR4^+CD144^+ arterial endothelial cells obtained after differentiation in the various medium conditions of FIG. 4C. […] FIG. 4F illustrates the percentage of DLL4^+CD144^+ arterial endothelial cells obtained after differentiation in the various medium conditions of FIG. 4E. 5 μM L-690,330 (a bisphosphonate inhibitor of inositol monophosphatase), and 100 ng/ml PDGF-BB (platelet derived growth factor BB) were used. […] Arterial endothelial cell differentiation and expansion: It took six days for AECs differentiation. From day 0 to day 2, human ES/iPS cells were first differentiated into mesoderm cells as mentioned above. From day 2 to day 6, E5 medium was used and growth factors or small molecules were added as indicated. With the combination of “five factors,” AECs were induced by E5 medium supplemented with 100 ng/ml FGF, 50 ng/ml VEGF, 10 μM SB431542, 5 μM RESV, and 10 μM […] from day 2 to day 6."}, "[3]": {"test_system": "AKT", "assay": "Western blot of AKT activity (pAKT) during differentiation", "details": "protein harvested at day 3, insulin 20 μg/ml, Ly294002 16 μM, FIG. 3C", "experimental": "FIGS. 3A-3F present candidate pathways critical for arteriovenous specification. (A) Flow cytometric analysis of EFNB2-tdTomato and EPHB4-EGFP expression on CD31 and CD144 gated endothelial cells. EFNB2-tdTomato/EPHB4-EGFP dual reporter cells (hetero knock-in in H1 cells for each gene) were first differentiated into mesoderm cells by E8BAC medium (E8 medium supplemented with BMP4, Activin-A, and CHIR99021). E5 (E8 medium minus FGF2, TGFβ1, and insulin) medium supplemented with 100 ng/ml FGF2, 50 ng/ml VEGFA, and 50 ng/ml BMP4 was used to induce mesoderm cells to differentiate into endothelial cells from day 2 to day 6. Either Insulin (20 μg/ml) or Ly294002 (16 μM, a PI3K inhibitor) was added to the medium as indicated from day 2 to day 6. (B) Statistics of EFNB2-tdTommato^high/EPHB4-EGFP^low cells. Data are represented as mean±SD. *: P<0.05, n=5. (C) Western blots showing AKT activity. Protein was harvested at day 3. (D) Flow cytometric analysis of EFNB2-tdTomato and EPHB4-EGFP expression on CD31 and CD144 gated endothelial cells. E5 medium supplemented with 50 ng/ml VEGFA, 50 ng/ml BMP4 or 10 μM SB431542 was used to induce mesoderm cells to differentiate into endothelial cells from day 2 to day 6. (E) Flow cytometric analysis of EFNB2-tdTomato and EPHB4-EGFP expression on CD31 and CD144 gated endothelial cells. ES cells were first differentiated into mesoderm cells as mentioned above. […]"}}, "note": "Entries after “also recorded” stand apart in the source; their conditions may differ.", "data": [{"molecule": "TGF-β", "values": [{"measurement": "arterial endothelial differentiation of human pluripotent stem cells (conclusion after FACS sorting and RT-qPCR)", "setting": "[1]", "result": "inhibit arterial endothelial differentiation"}]}, {"molecule": "FGF2: human fibroblast growth factor 2", "values": [{"measurement": "arterial endothelial cell differentiation (EFNB2-tdTomato high/EPHB4-EGFP low cells), factor added", "setting": "[1]", "result": "increased arterial endothelial cell differentiation"}, {"measurement": "EFNB2-tdTomato high/EPHB4-EGFP low cells, factor removed from five factors medium", "setting": "[1]", "result": "decrease"}, {"measurement": "arterial endothelial differentiation of human pluripotent stem cells (conclusion after FACS sorting and RT-qPCR)", "setting": "[1]", "result": "promote arterial endothelial differentiation"}, {"measurement": "CXCR4 and DLL4 (CD144+CXCR4+ and CD144+DLL4+ cells), factor removed from five factors medium", "setting": "[2]", "result": "decreased"}]}, {"molecule": "insulin: insulin, medium component, activates AKT", "values": [{"measurement": "arterial differentiation (EFNB2-tdTomato high/EPHB4-EGFP low cells), factor removed", "setting": "[1]", "result": "triggered AEC differentiation"}, {"measurement": "arterial endothelial differentiation of human pluripotent stem cells (conclusion after FACS sorting and RT-qPCR)", "setting": "[1]", "result": "inhibit arterial endothelial differentiation"}, {"measurement": "Phosphorylated AKT (pAKT)", "setting": "[3]", "result": "increased"}]}, {"molecule": "CC(Oc1ccc(O)cc1)(P(=O)(O)O)P(=O)(O)O", "note": "[L-690,330, reference compound]", "values": [{"measurement": "arterial endothelial cell differentiation (EFNB2-tdTomato high/EPHB4-EGFP low cells), factor added", "setting": "[1]", "result": "increased arterial endothelial cell differentiation"}, {"measurement": "EFNB2-tdTomato high/EPHB4-EGFP low cells, factor removed from five factors medium", "setting": "[1]", "result": "fewer"}, {"measurement": "arterial endothelial differentiation of human pluripotent stem cells (conclusion after FACS sorting and RT-qPCR)", "setting": "[1]", "result": "promote arterial endothelial differentiation"}, {"measurement": "CXCR4 and DLL4 (CD144+CXCR4+ and CD144+DLL4+ cells), factor removed from five factors medium", "setting": "[2]", "result": "no reduction"}]}, {"molecule": "Oc1ccc(C=Cc2cc(O)cc(O)c2)cc1", "note": "[RESV, 3,4′,5-trihydroxystilbene, reference compound]", "values": [{"measurement": "arterial specification (EFNB2-tdTomato and EPHB4-EGFP expression), factor added singly", "setting": "[1]", "result": "promoted increased arterial specification"}, {"measurement": "EFNB2-tdTomato high/EPHB4-EGFP low cells, factor removed from five factors medium", "setting": "[1]", "result": "decrease"}]}, {"molecule": "NC(=O)c1ccc(-c2nc(-c3ccc4c(c3)OCO4)c(-c3ccccn3)[nH]2)cc1", "note": "[SB431542, reference compound]", "values": [{"measurement": "arterial differentiation (EFNB2-tdTomato high/EPHB4-EGFP low cells), factor removed", "setting": "[1]", "result": "inhibited arterial differentiation"}, {"measurement": "EFNB2-tdTomato high/EPHB4-EGFP low cells, factor removed from five factors medium", "setting": "[1]", "result": "decrease"}, {"measurement": "CXCR4 and DLL4 (CD144+CXCR4+ and CD144+DLL4+ cells), factor removed from five factors medium", "setting": "[2]", "result": "decreased"}]}, {"molecule": "B1", "values": [{"measurement": "EFNB2-tdTomato high/EPHB4-EGFP low cells / arterial differentiation, factor added to five factors medium", "setting": "[1]", "result": "did not further increase arterial differentiation"}, {"measurement": "arterial specification (EFNB2-tdTomato and EPHB4-EGFP expression), factor added singly", "setting": "[1]", "result": "promoted increased arterial specification; also recorded: promoted arterial differentiation"}]}, {"molecule": "B2", "values": [{"measurement": "EFNB2-tdTomato high/EPHB4-EGFP low cells / arterial differentiation, factor added to five factors medium", "setting": "[1]", "result": "fewer"}, {"measurement": "arterial endothelial cell differentiation (EFNB2-tdTomato high/EPHB4-EGFP low cells), factor added", "setting": "[1]", "result": "inhibited arterial differentiation"}, {"measurement": "arterial endothelial differentiation of human pluripotent stem cells (conclusion after FACS sorting and RT-qPCR)", "setting": "[1]", "result": "inhibit arterial endothelial differentiation"}, {"measurement": "CD144+CXCR4+ and CD144+DLL4+ cells, factor added to five factors medium", "setting": "[2]; 100 ng/ml PDGF-BB", "result": "no reduction"}]}]}
